Here are results for 25 compounds from ChEMBL document CHEMBL5512599, “Synthetic non-toxic anti-biofilm agents as a strategy in combating bacterial resistance” (Eur J Med Chem, 2023).

≈ marks a conversion by molar mass, not a printed value.

Assay [1] deals with Staphylococcus aureus. Description: Antibiofilm activity against Staphylococcus aureus ATCC 33862 assessed as reduction in biofilm formation at 20 uM incubated for 24 hrs by absorbance based assay relative to control. The assay is classed as functional. Also on record: scale not given: the % may be the effect or the level left.
The subject of assay [2] is Pseudomonas aeruginosa. In words: Antibiofilm activity against Pseudomonas aeruginosa ATCC 10145 assessed as reduction in biofilm formation at 20 uM incubated for 24 hrs by absorbance based assay relative to control. The assay is classed as functional. Also noted: scale not given: the % may be the effect or the level left.
Assay [3] relates to Pseudomonas aeruginosa. In words: Anti-motility activity against Pseudomonas aeruginosa PAO1 assessed as reduction in swarming at 20 uM incubated for 16 hrs by crystal violet staining analysis relative to control. The assay is classed as functional. Also on record: scale not given: the % may be the effect or the level left.
Assay [4] has as its system Staphylococcus epidermidis. Description: Antibiofilm activity against Staphylococcus epidermidis assessed as inhibition of biofilm formation at 40 uM measured after 24 hrs by confocal laser scanning microscopy analysis relative to control. The assay is classed as functional. Also on record: scale not given: the % may be the effect or the level left.
The test system of assay [5] is Enterococcus faecalis. Description: Antibacterial activity against Enterococcus faecalis ATCC 29212 assessed as bacterial growth inhibition incubated for 15 to 18 hrs by Muller hinton broth based dilution assay. The assay is classed as functional. As to conditions: time 15-18 hrs.
Assay [6] deals with Enterococcus faecalis. Description: Antibiofilm activity against Enterococcus faecalis ATCC 29212 assessed as biofilm eradication incubated for 20 mins by crystal violet staining based analysis. The assay is classed as functional.
In assay [7] the test system is Pseudomonas aeruginosa. Description: Antibiofilm activity against Pseudomonas aeruginosa PAO1 assessed as inhibition of biofilm formation incubated at 100 uM incubated for 24 hrs by crystal violet staining based analysis relative to control. The assay is classed as functional. Also on record: scale not given: the % may be the effect or the level left.
A short description of assay [8]: Inhibition of Quorum sensing system Las in Pseudomonas aeruginosa PAO1 assessed as reduction in interaction with LasR regulator.
The subject of assay [9] is Pseudomonas aeruginosa. Description: Antibiofilm activity against Pseudomonas aeruginosa PA14 assessed as inhibition of biofilm formation incubated for 24 hrs by microscopic analysis. The assay is classed as functional, organism-based. As to conditions: PA14, 24 h.
Assay [10] has as its system Pseudomonas aeruginosa. Description: Antibiofilm activity against Pseudomonas aeruginosa PAO1 assessed as inhibition of biofilm formation incubated at 15 uM relative to control. The assay is classed as functional. Also noted: scale not given: the % may be the effect or the level left.
A short description of assay [11]: Inhibition of quorum sensing system in Pseudomonas aeruginosa PA14 assessed as inhibition of pyocyanin production.
Assay [12] deals with Pseudomonas aeruginosa. Description: Antibiofilm activity against Pseudomonas aeruginosa ATCC 27853 assessed as inhibition of biofilm formation at 0.5 times of MIC by crystal violet staining based analysis relative to control. Also noted: scale not given: the % may be the effect or the level left. The assay is classed as functional.
The target in assay [13] is T1, Transcriptional regulator MvfR (Pseudomonas aeruginosa PA14, UniProt A0A072ZLE6).
T1 sequence (A0A072ZLE6 whole entry): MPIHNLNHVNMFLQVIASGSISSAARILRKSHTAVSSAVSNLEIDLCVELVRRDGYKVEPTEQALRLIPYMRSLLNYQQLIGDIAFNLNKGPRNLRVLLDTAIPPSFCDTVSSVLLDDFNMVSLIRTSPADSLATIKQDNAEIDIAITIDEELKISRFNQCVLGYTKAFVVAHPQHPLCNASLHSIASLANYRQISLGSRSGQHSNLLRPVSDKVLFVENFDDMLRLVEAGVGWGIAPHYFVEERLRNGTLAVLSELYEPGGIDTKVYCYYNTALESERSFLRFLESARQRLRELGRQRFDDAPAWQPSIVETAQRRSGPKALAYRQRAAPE
In words: Antagonist activity at PqsR in wild-type Pseudomonas aeruginosa PAO1-L.

Assay [14] deals with T1, Transcriptional regulator MvfR. Description: Antagonist activity at PqsR in wild-type Pseudomonas aeruginosa PAO1 assessed as reduction in AQ level at 0.2 uM by LCMS/MS analysis.
For assay [15], the system named is Staphylococcus aureus. In words: Antibiofilm activity against Methicillin-resistant Staphylococcus aureus ATCC BAA-4A assessed as inhibition of biofilm formation. The assay is classed as functional, organism-based.
In assay [16] the test system is Staphylococcus aureus. Description: Antibacterial activity against Staphylococcus aureus ATCC 25923 assessed as reduction in bacterial growth incubated for 18 to 24 hrs by broth microdilution method. The assay is classed as functional. As to conditions: time 18-24 hrs. On the technique in general: Broth dilution looks for growth in wells or tubes with falling amounts of substance.

For assay [17], the system named is Staphylococcus aureus. Description: Antibacterial activity against Staphylococcus aureus ATCC 29213 assessed as reduction in bacterial growth incubated for 18 to 24 hrs by broth microdilution method. The assay is classed as functional. As to conditions: time 18-24 hrs.
The subject of assay [18] is Staphylococcus aureus. Description: Antibacterial activity against Staphylococcus aureus ATCC 6538 assessed as reduction in bacterial growth incubated for 18 to 24 hrs by broth microdilution method. The assay is classed as functional. As to conditions: time 18-24 hrs.
The test system of assay [19] is Staphylococcus epidermidis. Description: Antibacterial activity against Staphylococcus epidermidis RP62A assessed as reduction in bacterial growth incubated for 18 to 20 hrs by broth microdilution assay. The assay is classed as functional. As to conditions: time 18-20 hrs.
A short description of assay [20]: Inhibition of Staphylococcus aureus sortase A by FRET assay.
Assay [21] deals with Staphylococcus aureus. In words: Antibiofilm activity against Staphylococcus aureus ATCC 25923 at 25 ug/ml measured after 24 hrs by crystal violet staining based analysis relative to control. The assay is classed as functional. As to conditions: dose 25 µg/ml.
Assay [22] deals with T1, Transcriptional regulator MvfR. In words: Inhibition of PqsR-mediated quorum sensing system in Pseudomonas aeruginosa PAO1 assessed as reduction in pyocyanin production.
Assay [23] in a line: Inhibition of quorum sensing system in Pseudomonas aeruginosa PAO1 assessed as inhibition of pyocyanin production at 256 ug/ml incubated for 24 hrs by absorbance based assay.
Assay [24] concerns Pseudomonas aeruginosa. In words: Antibiofilm activity against Pseudomonas aeruginosa PAO1 assessed as inhibition of biofilm formation at 100 uM relative to control. The assay is classed as functional. Also noted: scale not given: the % may be the effect or the level left.
The test system of assay [25] is Staphylococcus aureus. In words: Antibiofilm activity against methicillin-resistant Staphylococcus aureus assessed as inhibition of biofilm formation incubated for overnight by crystal violet staining based microtiter plate assay. The assay is classed as functional, organism-based.

The MIC is the least concentration at which growth counts as inhibited. As usually defined, the IC50 is the concentration at which inhibition is half-maximal.

As for `CCCCCCCCCCCCCC(=O)Nc1cc(=O)c2ccccc2[nH]1`, the Activity result in [1] and in assay [2] was “>=50%” each time.
With `CN(C)c1cccc(/C=N/N=C2\SCC(=O)N2c2ccc(S(N)(=O)=O)cc2)c1`, the Activity in assay [3] and in [4] was 70% each time.
As to `O=[N+]([O-])c1ccc(-c2csc(-c3ccc(-c4cnc(-c5ccccc5)s4)cc3)n2)cc1`, the MIC in [5] amounted to 0.062 µg/mL (≈ 0.14 µM). Further, in assay [6], the MBEC was found to be 0.002 µg/mL.
With `O=C(CCCNc1ccc(Cl)cc1)NC1CCOC1=O` (stereo unspecified), the Activity in [7] is 70%.
The same measure, in the same setting: next, `O=C(CCCNc1ccc(F)cc1)NC1CCOC1=O` (stereo unspecified): 70%.
For `CCCCCCCCCC(=O)NC1CCCC1` [N-CYCLOPENTYLDECANAMIDE], in assay [8], the IC50 came to 80 µM.
As for `CCCCCCCCCCCc1c[nH]c(N)n1`, in [9], the IC50 worked out at 19 µM.
In the case of `Cc1cccc(NC(=O)CC(=O)CSC(=S)N[C@@H]2CCOC2=O)c1`, the Activity in [10] is 35%.
`CCCCCCCNC(=O)CCc1c[nH]c(N)n1`: in assay [9], the IC50 was found to be 43 µM.
On to `NCCCCCCCCCCCCNc1ccnc2cc(C(F)(F)F)ccc12`, for which, in assay [11], the IC50 came to 50 µM. The Activity in assay [12] is 75%.
Regarding `CCCCCCC(CCCCCC)NC(=O)CCCc1c[nH]c(N)n1`, the IC50 in assay [9] is 16 µM.
Consider `NCCCCCCCCCCCCNc1ccnc2cc(Cl)ccc12`, for which, in assay [11], the concentration for half-maximal inhibition (IC50) is 12 µM. Further, the Activity in assay [12] was 85%.
Regarding `COc1cccc(NC(=O)CC(=O)CSC(=S)N[C@@H]2CCOC2=O)c1`, the Activity in assay [10] worked out at 35%.
Take `CCCCCCCCCc1nc2cc(Cl)ccc2c(=O)n1N`: it took 1.2 µM to reach half-maximal inhibition in assay [13] (IC50).
Consider `N#CCc1ccc(OC[C@H](O)Cn2cnc3ccc(Cl)cc3c2=O)cc1`, for which the IC50 in assay [14] is 1.1 µM.
For `CCCCCc1ccc(C(=O)NCCn2cc(CCCCCc3[nH]cnc3-c3ccoc3)nn2)cc1`, the IC50 in [15] is 3.7 µM.
On to `CC(=O)/C(=N\Nc1ccc([N+](=O)[O-])cc1)C(=O)O`, for which the MIC in assay [16], in assay [17], in [18] and in assay [19] was more than 270 µM each time. In addition, the IC50 in assay [20] amounted to 57 µM.
In [21], `Cc1nn(C)c([N-]C(=O)c2ccc(Cl)cc2)c1[N+]#N` had an Activity of 69%.
In the case of `Clc1ccc2c(NCCCCCCCCNCc3cc4ccccc4o3)ccnc2c1`, the IC50 in [22] turned out to be 25 µM.
In the case of `O=C(c1ccc(Cl)cc1)c1ccnc(C(F)F)c1`, the IC50 in assay [23] came to 35 µM. The Activity in assay [24] turned out to be 71%.
With `N#Cc1ccc(-c2csc(-c3ccc(-c4cnc(-c5ccccc5)s4)cc3)n2)cc1`, the MIC in assay [5] was determined as 0.062 µg/mL (≈ 0.147 µM). Besides, the MBEC in [6] amounted to 0.002 µg/mL.
Take `CCCCCc1ccc(C(=O)NCCn2cc(CCCCCc3[nH]cnc3-c3ccc4c(c3)OCO4)nn2)cc1`: in assay [15], the IC50 turned out to be 3.7 µM.
With `CCCCCc1ccc(C(=O)NCCn2cc(CCCCCc3c[nH]c(N)n3)nn2)cc1`, in [25], the IC50 was less than 7.2 µM.
As for `CC(=O)/C(=N\Nc1cccc(Cl)c1)C(=O)O`, the MIC in [16], in assay [17], in [18] and in [19] was more than 270 µM throughout. The compound also came in with an IC50 in assay [20] of 87 µM.
Take `c1ccc(-c2csc(-c3ccc(-c4cnc(-c5ccccc5)s4)cc3)n2)cc1`: the MIC in assay [5] amounted to 0.125 µg/mL (≈ 0.315 µM). In assay [6], the MBEC stood at 0.002 µg/mL.
